Data: patent publication US10017509B2, “Macrocylic pyrimidine derivatives” (Janssen Pharmaceutica NV, priority 2014, dated 2018)

Experiments:
EF2K [1] = target: T1, EF2K (Homo sapiens, UniProt O00418); experiment: Biochemical EF2K lysate-based kinase assay (AlphaLISA p-eEF2 Thr56); details: pIC50 = -log IC50 (M), read-out: eEF2K_C_alphalisa pIC50 (converted)
T1 construct: host or cells: LN-229 cell lysate
T1 sequence (O00418 1-725): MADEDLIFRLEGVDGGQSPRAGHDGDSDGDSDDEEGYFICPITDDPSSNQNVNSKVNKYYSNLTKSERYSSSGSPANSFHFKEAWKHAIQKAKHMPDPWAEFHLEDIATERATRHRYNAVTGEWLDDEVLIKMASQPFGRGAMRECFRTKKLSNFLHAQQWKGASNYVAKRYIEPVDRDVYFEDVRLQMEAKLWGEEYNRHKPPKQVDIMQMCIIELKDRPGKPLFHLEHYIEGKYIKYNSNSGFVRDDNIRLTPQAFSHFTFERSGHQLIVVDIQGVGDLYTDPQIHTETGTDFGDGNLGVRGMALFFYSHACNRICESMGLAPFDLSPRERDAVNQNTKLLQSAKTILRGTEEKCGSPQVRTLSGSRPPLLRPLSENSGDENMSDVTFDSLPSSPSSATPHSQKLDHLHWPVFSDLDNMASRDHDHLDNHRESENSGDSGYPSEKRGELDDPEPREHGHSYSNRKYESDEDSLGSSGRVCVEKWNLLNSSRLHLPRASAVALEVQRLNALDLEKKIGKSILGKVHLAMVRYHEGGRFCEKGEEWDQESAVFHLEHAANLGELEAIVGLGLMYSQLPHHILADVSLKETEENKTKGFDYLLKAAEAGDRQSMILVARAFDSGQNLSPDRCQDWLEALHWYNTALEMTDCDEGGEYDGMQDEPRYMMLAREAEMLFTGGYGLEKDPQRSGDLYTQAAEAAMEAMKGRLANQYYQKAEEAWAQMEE
From the text: Biochemical EF2K Lysate-Based Kinase Assay
LN-229 cells were purchased from ATCC (CRL-2611); these are glioblastoma cells. Cell lysates from LN229 were used in this kinase assay to provide both the kinase and the substrate (EF2). The AlphaLISA p-eEF2 (Thr56) detection assay was developed using a sandwich assay format with two specific antibodies recognizing different epitopes of the target, including one antibody against the phosphorylation site of interest. One anti-eEF2 antibody was conjugated onto AlphaLISA Acceptor beads, while the second antibody was biotinylated and captured by streptavidin coated Donor beads.
Compound was mixed with LN-229 cell lysates in the presence of a kinase buffer (e.g. HEPES) at a pH of 6.6, containing 10 mM Mg^2+ (e.g. magnesium acetate) and 10 mM adenosine-tri-phosphate (ATP) and incubated at room temperature for 15 minutes. The kinase reaction was stopped with excess ethylenediaminetetraacetic acid disodium salt and the biotinylated-anti phospho eEF2 antibody (3 nM) was added for 1 hour. Then the anti-EF2 acceptor beads (10 μg/ml) as well as the streptavidin coated donor beads (20 μg/ml) were added for 1 hour, and the AlphaLISA signal was measured in an Envision instrument once, left overnight, and measured again for the final read.
(§1) (pIC50 is −log IC50 where IC50 represents the concentration expressed in M at which the test compound gives 50% inhibition)

[2] = target: Vps34 (PIK3C3 lipid kinase) (Homo sapiens, UniProt Q8NEB9); experiment: Biochemical Vps34 lipid kinase assay (ADP-Glo); details: for IC50: serial half-log dilution 10 μM to 0.3 nM, pIC50 = -log IC50 (M); for VPS34_1microM_% of cntrl / remaining activity at 1 µM: single dose 1 μM compound, residual activity compared to control (DMSO); for remaining activity at 1 µM: 1 h, read-out: VPS34_1microM_% of cntrl
Vps34 (PIK3C3 lipid kinase), sequence (Q8NEB9 whole entry, species assumed): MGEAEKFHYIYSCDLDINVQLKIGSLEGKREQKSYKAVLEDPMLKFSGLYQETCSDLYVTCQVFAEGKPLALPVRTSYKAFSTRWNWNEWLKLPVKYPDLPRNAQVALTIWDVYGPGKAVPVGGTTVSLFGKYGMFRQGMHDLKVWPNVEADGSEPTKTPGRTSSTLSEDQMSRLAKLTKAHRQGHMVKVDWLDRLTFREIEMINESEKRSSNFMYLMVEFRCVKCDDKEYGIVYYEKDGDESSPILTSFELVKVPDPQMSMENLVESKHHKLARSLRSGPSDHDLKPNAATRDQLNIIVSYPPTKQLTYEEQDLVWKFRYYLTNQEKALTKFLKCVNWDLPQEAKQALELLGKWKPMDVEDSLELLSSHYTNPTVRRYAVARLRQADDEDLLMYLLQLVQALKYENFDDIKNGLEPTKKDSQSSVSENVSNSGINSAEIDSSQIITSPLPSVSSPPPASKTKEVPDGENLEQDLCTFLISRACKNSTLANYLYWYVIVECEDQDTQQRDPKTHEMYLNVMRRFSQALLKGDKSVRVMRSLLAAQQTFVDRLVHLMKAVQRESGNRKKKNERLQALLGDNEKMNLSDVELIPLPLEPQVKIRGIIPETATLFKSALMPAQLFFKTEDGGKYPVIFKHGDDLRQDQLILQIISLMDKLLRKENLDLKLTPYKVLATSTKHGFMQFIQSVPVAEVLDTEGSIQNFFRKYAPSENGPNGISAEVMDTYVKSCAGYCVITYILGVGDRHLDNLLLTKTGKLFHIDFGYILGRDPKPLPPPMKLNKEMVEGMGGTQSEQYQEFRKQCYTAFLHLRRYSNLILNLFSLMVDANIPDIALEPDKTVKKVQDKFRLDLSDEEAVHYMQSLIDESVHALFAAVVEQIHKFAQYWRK
Protocol: Biochemical Vps34 Lipid Kinase Assay
A non-radiometric kinase assay (ADP-Glo™ Assay, Promega, Madison, Wi, USA) was used for measuring the kinase activity of the PIK3C3 lipid kinase. All kinase assays were performed in 96-well half-area microtiter plates in a 25 μl reaction volume. The reaction cocktail was pipetted in 3 steps in the following order: • 10 μl of ATP solution (in assay buffer, see below) • 5 μl of test sample in 5% DMSO 10 μl of enzyme/substrate mixture
All lipid kinase assays contained 50 mM HEPES (4-(2-hydroxyethyl)-1-piperazineethanesulfonic acid)-NaOH, pH 7.5, 1 mM EGTA ((ethylene glycol tetraacetic acid), 100 mM NaCl, 0.03% CHAPS (3-[(3-Cholamidopropyl)dimethylammonio]-1-propanesulfonate), 2 mM DTT (Dithiothreitol), 20 μM ATP (corresponding to the apparent ATP-Km), kinase (7.6 nM) and substrate (50 μM). The assay for PIK3C3 additionally contained 3 mM MnCl2.
The reaction cocktails were incubated at 30° C. for 60 minutes. The reaction was stopped with 25 μl ADP-Go™ reagent per well. Plates were incubated for 40 minutes at room temperature, followed by addition of 50 μl kinase detection reagent per well and incubation for 60 minutes at room temperature. Signal was determined with a microplate luminescence reader (Victor, Perkin Elmer). The assay was either performed using a single dose of compound (1 μM final concentration in the assay reaction) with resulting data expressed as residual activity compared to control (DMSO), or using a serial (half-log) dilution of compounds starting at 10 μM and down to 0.3 nM (final concentrations in the assay) with data expressed as the pIC50.
as §1

EF2K [3] = target: T1, EF2K; experiment: EF2K cell-based assay (P-EF2 AlphaLISA, 2-deoxyglucose stimulated MCF10A cells); details: 2.5 mM 2-deoxyglucose stimulated, P-EF2 Thr56, pIC50 = -log IC50 (M); for IC50: read-out: eEF2K_C_PThr56 pIC50 (converted)
Protocol: In this assay, 2.5 mM 2-deoxyglucose was used to deplete intracellular ATP and activate 5′ adenosine monophosphate-activated protein kinase (AMPK) in the immortalized epithelial breast cell lines, MCF10A. MCF 10A cells were purchased from ATCC (CRL-10317).
MCF10A cells are seeded at a density of 1.25×10^5 Cells/ml at 100 μl/well in a 96-well plate and incubated for 24 hours (37° C., 5% CO2). Compound is added for 1 hour, and cell are stimulated with 2.5 mM of 2-deoxy-glucose for 4 hours. Medium is then removed, and cells are lysed in an ice-cold buffer M-PER (Thermo Scientific, 78501), containing protease and phosphatase inhibitors. P-EF2 levels are determined in these lysates using the P-EF2 AlphaLISA described above.
as §1

| SMILES | IC50 (EF2K [1]) [M] | IC50 [2] [M] | VPS34_1microM_% of cntrl [2] | IC50 (EF2K [3]) [M] | remaining activity at 1 µM [2] [%] | eEF2K_C_PThr56 pIC50 (EF2K [3]) |
| --- | --- | --- | --- | --- | --- | --- |
| O=C1CN2CCN(CC2)Cc2cccc(c2)Nc2nccc(n2)-c2ccc(nc2)NCC(O)CN1 (single isomer, unassigned) [Compound 24] | ~6.46e-07 | 1.23e-07 | 10.54 % of cntrl | 1.1e-05 | – | – |
| O=C1CN2CCN(CC2)Cc2cccc(c2)Nc2nccc(n2)-c2ccc(nc2)NCC(O)CN1 (single isomer, unassigned) [Compound 25] | 2.88e-06 | 7.76e-08 | – | > 3.02e-05 | 6.36 | – |
| O=C1CN2CCN(Cc3cccc(c3)Nc3nccc(n3)-c3ccc(nc3)NCCCN1)C(CO)C2 (single isomer, unassigned) [Compound 47] | < 3.02e-08 | 8.32e-08 | 7.88 % of cntrl | 4.57e-06 | – | – |
| O=C1CN2CCN(Cc3cccc(c3)Nc3nccc(n3)-c3ccc(nc3)NCCCN1)C(CO)C2 (single isomer, unassigned) [Compound 48] | 5.5e-06 | 4.27e-08 | 3.34 % of cntrl | > 3.02e-05 | – | – |
| CN1CCCN(C)c2ccc(cn2)-c2ccnc(n2)Nc2cccc(c2)CN2CCN(CC1=O)CC2CO (single isomer, unassigned) [Compound 52] | 9.12e-07 | 3.98e-07 | – | > 3.02e-05 | 12.8 | – |
| CN1CCCN(C)c2ccc(cn2)-c2ccnc(n2)Nc2cccc(c2)CN2CCN(CC1=O)CC2CO (single isomer, unassigned) [Compound 53] | 3.39e-08 | 2.75e-07 | 13.15 % of cntrl | – | – | <4.52 |
| CC1CN2CCN1Cc1cccc(c1)Nc1nccc(n1)-c1ccc(nc1)NCCCNC(=O)C2 (single isomer, unassigned) [Compound 61] | 1.32e-06 | 4.47e-08 | 6.78 % of cntrl | > 3.02e-05 | – | – |
| CC1CN2CCN1Cc1cccc(c1)Nc1nccc(n1)-c1ccc(nc1)NCCCNC(=O)C2 (single isomer, unassigned) [Compound 62] | 7.76e-08 | – | 166.89 % of cntrl | 2.04e-06 | – | – |
| O=C1CN2CCN(CC2)Cc2cccc(c2)Nc2nccc(n2)-c2ccc(nc2)N2CC(O)CC2CCN1 (single isomer, unassigned) [Compound 89] | ~6.31e-06 | 4.68e-08 | – | > 3.02e-05 | 13.6 | – |
| O=C1CN2CCN(CC2)Cc2cccc(c2)Nc2nccc(n2)-c2ccc(nc2)N2CC(O)CC2CCN1 (single isomer, unassigned) [Compound 90] | 9.33e-06 | 2.09e-07 | 15.81 % of cntrl | > 3.02e-05 | – | – |
| O=C1CN2CCN(CC2)Cc2cccc(c2)Nc2nccc(n2)-c2ccc(nc2)N2CC(O)CC2CCN1 (single isomer, unassigned) [Compound 91] | 1.17e-08 | 5.13e-06 | – | 1.41e-06 | – | – |
| CN1CCCN(C)c2ccc(cn2)-c2ccnc(n2)Nc2cccc(c2)CN2CCN(CC1=O)C(CO)C2 (single isomer, unassigned) [Compound 95] | 8.32e-07 | 3.47e-07 | – | > 3.02e-05 | 18.8 | – |
| O=C1CN2CCN(CC2)Cc2cccc(c2)Nc2nccc(n2)-c2ccc(nc2)N2CC(O)CC2CCN1 (single isomer, unassigned) [Compound 96] | 6.76e-09 | 1.32e-07 | – | 1.26e-06 | – | – |
| CN1CCCN(C)c2ccc(cn2)-c2ccnc(n2)Nc2cccc(c2)CN2CCN(CC1=O)CC2COCCN1CCOCC1 (single isomer, unassigned) [Compound 99] | 2.4e-06 | 1.51e-06 | – | > 3.02e-05 | – | – |
| CN1CCCN(C)c2ccc(cn2)-c2ccnc(n2)Nc2cccc(c2)CN2CCN(CC1=O)CC2COCCN1CCOCC1 (single isomer, unassigned) [Compound 100] | 6.46e-08 | – | – | 1.48e-05 | 43 | – |
| CN1CCCN(C)c2ccc(cn2)-c2ccnc(n2)Nc2cccc(c2)CN2CCN(CC1=O)CC2COCCO (single isomer, unassigned) [Compound 104] | 1.78e-05 | 3.02e-07 | – | > 3.02e-05 | 25.1 | – |
| CN1CCCN(C)c2ccc(cn2)-c2ccnc(n2)Nc2cccc(c2)CN2CCN(CC1=O)CC2COCCO (single isomer, unassigned) [Compound 105] | 8.71e-08 | 9.77e-07 | 28.59 % of cntrl | 1.78e-05 | – | – |
| CC1CN2CCN1CC(=O)NCCCNc1ccc(cn1)-c1ccnc(n1)Nc1cccc(c1)C2 (single isomer, unassigned) [Compound 136] | 1.45e-07 | 1.66e-08 | 3.08 % of cntrl | ~8.51e-06 | – | – |
| CC1CN2CCN1CC(=O)NCCCNc1ccc(cn1)-c1ccnc(n1)Nc1cccc(c1)C2 (single isomer, unassigned) [Compound 137] | 1.95e-06 | 8.13e-08 | 8.17 % of cntrl | > 3.02e-05 | – | – |
| CN1CCN(C)c2ccc(cn2)-c2ccnc(n2)Nc2cccc(c2)CN2CCNC(C2)C1=O (stereo not shown) [Compound 68] | 2e-05 | 7.76e-07 | – | – | 28.4 | – |
| CN1CCN(C)c2ccc(cn2)-c2ccnc(n2)Nc2cccc(c2)CN2CCN(C)C(C2)C1=O (stereo not shown) [Compound 69] | > 3.02e-05 | 2.24e-06 | – | – | 22.8 | – |
| CN1CCCN(C)c2ccc(cn2)-c2ccnc(n2)Nc2cccc(c2)CN2CCNC(C2)C1=O (stereo not shown) [Compound 74] | 2.04e-05 | 4.79e-07 | – | – | 20.7 | – |
| CN1CCCN(C)c2ccc(cn2)-c2ccnc(n2)Nc2cccc(c2)CN2CCN(CC2)C1=O [Compound 76] | 2.34e-07 | 3.47e-07 | – | – | 8.71 | – |
| CC(C)N1CCN(C(C)C)c2ccc(cn2)-c2ccnc(n2)Nc2cccc(c2)CN2CCN(CC2)CC1=O [Compound 121] | 1.78e-05 | – | – | – | 34.1 | – |
